# According to patent publication US6720331B2, “1-substituted 1,2,3,4-tetrahydro-β-carboline and 3,4-dihydro-β-carboline and analogs as antitumor agents” (National Sun Yat-sen University, priority 2001, dated 2004):
# Read-outs that look alike come from different tables or passages of the source.
# Columns and labels:
# P-388 (murine leukemia) = assay: Growth inhibition of tumor cell line P-388 (Table 1); format: cell-based; conditions: for IC50: Mus musculus, P388, 72 h, read-out: IC50, concentration inhibiting 50% of the growth of P-388
# [1] = tested on: KB-16 (human nasopharyngeal carcinoma); assay: Growth inhibition of tumor cell line KB-16 (Table 1); format: cell-based; conditions: for IC50: Homo sapiens, KB16, 72 h, read-out: IC50, concentration inhibiting 50% of the growth of KB-16
# [2] = tested on: A-549 (human lung adenocarcinoma); assay: Growth inhibition of tumor cell line A-549 (Table 1); format: cell-based; conditions: for IC50: Homo sapiens, A549, 144 h, read-out: IC50, concentration inhibiting 50% of the growth of A-549
# [3] = tested on: HT-29 (human colon adenocarcinoma); assay: Growth inhibition of tumor cell line HT-29 (Table 1); format: cell-based; conditions: for IC50: Homo sapiens, HT-29, 144 h, read-out: IC50, concentration inhibiting 50% of the growth of HT-29
# murine P-388 cells = conditions: Sakai et al., J Am Chem Soc 1986; cited from earlier work
# [4] = 3 day drug exposure, columns A/B = scaffold type
# [5] = 6 day drug exposure, columns A/B = scaffold type
IC50 (P-388 (murine leukemia); [4]) [µg/mL],"IC50 [1, 4] [µg/mL]","IC50 [2, 5] [µg/mL]","IC50 [3, 5] [µg/mL]",Compound,also measured
,,,,"CCn1c2ccccc2c2cc(C3NCCc4c3[nH]c3ccccc43)ccc21 (stereo not drawn) [Compound 16, 1-(9′-Ethyl-3′-carbazole)-1,2,3,4-tetrahydro-β-carboline]","IC50, concentration inhibiting 50% of the growth of P-388 (P-388 (murine leukemia); [4]): 0.7 µg/mL; IC50, concentration inhibiting 50% of the growth of KB-16 [1, 4]: 0.8 µg/mL; IC50, concentration inhibiting 50% of the growth of A-549 [2, 5]: 0.8 µg/mL; IC50, concentration inhibiting 50% of the growth of HT-29 [3, 5]: 0.5 µg/mL"
0.6,0.7,1.1,1.1,"COc1ccc(C2NCCc3c2[nH]c2ccccc32)c(OC)c1 (stereo not drawn) [Compound 9, 1-(2′,4′-Dimethoxyphenyl)-1,2,3,4-tetrahydro-β-carboline]",
,,,,"c1ccc2c(c1)Cc1cc(C3NCCc4c3[nH]c3ccccc43)ccc1-2 (stereo not drawn) [Compound 15, 1-(2′-Fluorenyl)-1,2,3,4-tetrahydro-β-carboline]","IC50, concentration inhibiting 50% of the growth of P-388 (P-388 (murine leukemia); [4]): 0.1 µg/mL; IC50, concentration inhibiting 50% of the growth of KB-16 [1, 4]: 0.4 µg/mL; IC50, concentration inhibiting 50% of the growth of A-549 [2, 5]: 0.6 µg/mL; IC50, concentration inhibiting 50% of the growth of HT-29 [3, 5]: 0.5 µg/mL"
,,,,"CCN(CC)c1ccc(C2NCCc3c2[nH]c2ccccc32)cc1 (stereo not drawn) [Compound 8, 1-(4′-N-Diethylaminophenyl)-1,2,3,4-tetrahydro-β-carboline]","IC50, concentration inhibiting 50% of the growth of P-388 (P-388 (murine leukemia); [4]): 0.07 µg/mL; IC50, concentration inhibiting 50% of the growth of KB-16 [1, 4]: 0.2 µg/mL; IC50, concentration inhibiting 50% of the growth of A-549 [2, 5]: 1.1 µg/mL; IC50, concentration inhibiting 50% of the growth of HT-29 [3, 5]: 1.1 µg/mL"
1.2,1.4,0.5,0.7,"COc1cc(C2=NCCc3c2[nH]c2ccccc32)cc(OC)c1OC [Compound 26, 1-(3′,4′,5′-Trimethoxyphenyl)-3,4-dihydro-β-carboline]",
1,2.1,3,1.1,"Brc1ccc(C2NCCc3c2[nH]c2ccccc32)cc1 (stereo not drawn) [Compound 5, 1-(4′-Bromophenyl)-1,2,3,4-tetrahydro-β-carboline]",
0.2,1.4,0.6,0.4,"COc1cc(OC)cc(C2NCCc3c2[nH]c2ccccc32)c1 (stereo not drawn) [Compound 12, 1-(3′,5′-Dimethoxyphenyl)-1,2,3,4-tetrahydro-β-carboline]",
0.7,0.3,1.8,1.3,"CCN(CC)c1ccc(C2=NCCc3c2[nH]c2ccccc32)cc1 [Compound 21, 1-(4′-Diethylaminophenyl)-3,4-dihydro-β-carboline]",
2.6,3.7,2,2.2,"COc1ccc(OC)c(C2NCCc3c2[nH]c2ccccc32)c1 (stereo not drawn) [Compound 11, 1-(2′,5′-Dimethoxyphenyl)-1,2,3,4-tetrahydro-β-carboline]",
,,,,"O=[N+]([O-])c1cc(C2NCCc3c2[nH]c2ccccc32)cc2c1OCO2 (stereo not drawn) [Compound 14, 1-(3′-Nitroz4′-Benzo-1″,3″-dioxole)-1,2,3,4-tetrahydro-β-carboline]","IC50, concentration inhibiting 50% of the growth of P-388 (P-388 (murine leukemia); [4]): 0.3 µg/mL; IC50, concentration inhibiting 50% of the growth of KB-16 [1, 4]: 6.0 µg/mL; IC50, concentration inhibiting 50% of the growth of A-549 [2, 5]: 1.7 µg/mL; IC50, concentration inhibiting 50% of the growth of HT-29 [3, 5]: 1.4 µg/mL"
2.2,1.7,1.6,0.7,"CN(C)c1ccc(C2NCCc3c2[nH]c2ccccc32)cc1 (stereo not drawn) [Compound 7, 1-(4′-Dimethylaminophenyl)-1,2,3,4-tetrahydro-β-carboline]",
,,,,"1-(2′-Fluorenyl)-3,4-dihydro-β-carboline [Compound 28]","IC50, concentration inhibiting 50% of the growth of P-388 (P-388 (murine leukemia); [4]): 0.1 µg/mL; IC50, concentration inhibiting 50% of the growth of KB-16 [1, 4]: 1.4 µg/mL; IC50, concentration inhibiting 50% of the growth of A-549 [2, 5]: 0.6 µg/mL; IC50, concentration inhibiting 50% of the growth of HT-29 [3, 5]: 0.7 µg/mL"
,,,,"1-(3′-Nitro-4′-Benzo-1″,3″-dioxole)-3,4-dihydro-β-carboline [Compound 27]","IC50, concentration inhibiting 50% of the growth of P-388 (P-388 (murine leukemia); [4]): 0.3 µg/mL; IC50, concentration inhibiting 50% of the growth of KB-16 [1, 4]: 0.8 µg/mL; IC50, concentration inhibiting 50% of the growth of A-549 [2, 5]: 0.6 µg/mL; IC50, concentration inhibiting 50% of the growth of HT-29 [3, 5]: 1.0 µg/mL"
< 0.001,< 0.001,< 0.001,< 0.001,"CC(=O)O[C@H]1C(=O)[C@@]2(C)[C@H]([C@H](OC(=O)c3ccccc3)[C@]3(O)C[C@H](OC(=O)[C@H](O)[C@@H](NC(=O)c4ccccc4)c4ccccc4)C(C)=C1C3(C)C)[C@]1(OC(C)=O)CO[C@@H]1C[C@@H]2O [Compound 30, paclitaxel, reference compound]",
0.4,1,0.6,0.6,"COc1cc(OC)cc(C2=NCCc3c2[nH]c2ccccc32)c1 [Compound 25, 1-(3′,5′-Dimethoxyphenyl)-3,4-dihydro-β-carboline]",
,,,,"O[C@]12C=C(c3nccc4c3[nH]c3ccccc34)[C@@H]3CCN(CCCC/C=C\CC1)C[C@@]31C[C@@H]3/C=C\CCCCN3[C@@H]12 [Compound 3, manzamine A, reference compound]",IC50 (P-388 (murine leukemia)): 0.07 µg/mL; IC50 [1]: < 0.001 µg/mL; IC50 [2]: 0.03 µg/mL; IC50 [3]: 0.1 µg/mL; cytotoxicity against murine P-388 cells (murine P-388 cells): 0.07 µg/mL
2.8,> 50,> 50,> 50,"COc1ccc(C2NCCc3c2[nH]c2ccccc32)cc1OC (stereo not drawn) [Compound 10, 1-(3′,4′-Dimethoxyphenyl)-1,2,3,4-tetrahydro-β-carboline]",
1.2,8.3,2,1.6,"COc1cc(C2NCCc3c2[nH]c2ccccc32)cc(OC)c1OC (stereo not drawn) [Compound 13, 1-(3′,4′,5′-Trimethoxyphenyl)-1,2,3,4-tetrahydro-β-carboline]",

Compound,IC50 (P-388 (murine leukemia); [4]) [µg/mL],"IC50 [1, 4] [µg/mL]","IC50 [2, 5] [µg/mL]","IC50 [3, 5] [µg/mL]",also measured
"O=[N+]([O-])c1ccc(C2NCCc3c2[nH]c2ccccc32)cc1 (stereo not drawn) [Compound 6, 1-(4′-Nitrophenyl)-1,2,3,4-tetrahydro-β-carboline]",0.8,1.1,0.9,1.5,
"CN(C)c1ccc(C2=NCCc3c2[nH]c2ccccc32)cc1 [Compound 20, 1-(4′-Dimethylaminophenyl)-3,4-dihydro-β-carboline]",2.9,4.8,50,3,
"Clc1ccc(C2NCCc3c2[nH]c2ccccc32)cc1 (stereo not drawn) [Compound 4, 1-(4′-Chlorophenyl)-1,2,3,4-tetrahydro-β-carboline]",0.2,0.7,0.6,0.9,
"COc1ccc(OC)c(C2=NCCc3c2[nH]c2ccccc32)c1 [Compound 24, 1-(2′,5′-Dimethoxyphenyl)-3,4-dihydro-β-carboline]",1.1,0.7,0.2,0.4,
"COc1ccc(C2=NCCc3c2[nH]c2ccccc32)c(OC)c1 [Compound 22, 1-(2′,4′-Dimethoxyphenyl)-3,4-dihydro-β-carboline]",0.6,2.7,0.5,0.5,
"COc1ccc(C2=NCCc3c2[nH]c2ccccc32)cc1OC [Compound 23, 1-(3′,4′-Dimethoxyphenyl)-3,4-dihydro-β-carboline]",2.7,15,12,2.7,
